Data on 10 compounds can be found in patent publication US9963455B2, “Pyrazolo[1,5-a]pyrimidines as antiviral compounds” (Curovir AB, priority 2014, dated 2018).

Read-outs that look alike come from different tables or passages of the source.

Common to all, as to assay type: cell-based
The test system of experiment [1] is coxsackie B virus strain 2. As to the kind of experiment: CPE inhibition in mammalian cell culture, Cox-B2. More on the design: inhibition: dose or concentration left out as unconfirmed. The conditions noted are these: read-out: antiviral effect, B2.
A further experiment has as its system polio virus strain 1. As to the kind of experiment: microbe, parasite or virus in culture. Particulars: read-out: antiviral effect, Polio 1. Details: inhibition: dose or concentration left out as unconfirmed.
A further experiment deals with EV68. As to the kind of experiment: CPE inhibition in mammalian cell culture, EV68. More on the design: antiviral effect, EV68: unit of the concentration uncertain.
The next experiment concerns Enterovirus strain 6. Nature of the experiment: microbe, parasite or virus in culture. The conditions noted are these: for inhibition: read-out: antiviral effect, EV6. Details: inhibition: dose or concentration left out as unconfirmed.
Experiment [2] has as its system coxsackie B virus strain 3. Nature of the experiment: CPE inhibition in mammalian cell culture, Cox-B3. More on the design: inhibition: dose or concentration left out as unconfirmed. Particulars: for inhibition at 1000 µM / inhibition / inhibition at 5000 µM: read-out: antiviral effect, B3.
For experiment [3], the system named is coxsackie B virus strain 4. As to the kind of experiment: CPE inhibition in mammalian cell culture, Cox-B4. The conditions noted are these: read-out: antiviral effect, B4. Details: inhibition: dose or concentration left out as unconfirmed.
Experiment [4] has as its system coxsackie B virus strain 5. Nature of the experiment: CPE inhibition in mammalian cell culture, Cox-B5. More on the design: inhibition: dose or concentration left out as unconfirmed. The conditions noted are these: for inhibition at 1000 µM / inhibition / inhibition at 5000 µM: read-out: antiviral effect, B5.
A further experiment concerns Ljungan virus strain 012. Nature of the experiment: CPE inhibition in mammalian cell culture, LV012. The conditions noted are these: Parechovirus B, read-out: antiviral effect, LV012; for inhibition at 1 µM: Conc. 1 µM; for inhibition at 100 µM: Conc. 0.1 mM; for inhibition at 5 µM: Conc. 5 µM.
For another experiment, the system named is Enterovirus strain 30. Nature of the experiment: CPE inhibition in mammalian cell culture, EV30. The conditions noted are these: for inhibition at 1 µM: Conc. 1 µM; for inhibition at 1 µM / inhibition at 100 µM / inhibition at 5 µM: read-out: antiviral effect, EV30; for inhibition at 100 µM: Conc. 0.1 mM; for inhibition at 5 µM: Conc. 5 µM.
The test system of experiment [5] is Human parechovirus strain 1. Nature of the experiment: CPE inhibition in mammalian cell culture, HPeV-1. The conditions noted are these: Parechovirus A, read-out: antiviral effect, HPeV-1; for inhibition at 100 µM: Conc. 0.1 mM; for inhibition at 5 µM: Conc. 5 µM.
Experiment [6] relates to coxsackie B virus strain 1. Nature of the experiment: CPE inhibition in mammalian cell culture, Cox-B1. Particulars: for inhibition at 1000 µM / inhibition / inhibition at 5000 µM: read-out: antiviral effect, B1. Details: inhibition: dose or concentration left out as unconfirmed.
In a further experiment the test system is Enterovirus strain 71. Nature of the experiment: CPE inhibition in mammalian cell culture, EV71. The conditions noted are these: for inhibition at 100 µM: Conc. 0.1 mM, read-out: antiviral effect, EV71.
For experiment [7], the system named is encephalomyocarditis virus. As to the kind of experiment: CPE inhibition in mammalian cell culture, EMCV. Particulars: Cardiovirus A; Conc. 0.1 mM; read-out: antiviral effect, EMCV.
The test system of the next experiment is Ljungan virus strain 145. Nature of the experiment: CPE inhibition in mammalian cell culture, LV145. Particulars: Parechovirus B; Conc. 0.1 mM; read-out: antiviral effect, LV145.

For `COc1ccc(-c2c(C)nn3c(NCc4ccc(NS(C)(=O)=O)cc4)cc(C)nc23)cc1OC` [Ex. 80, N-[4-[[[3-(3,4-dimethoxyphenyl)-2,5-dimethyl-pyrazolo[1,5-a]pyrimidin-7-yl]amino]methyl]phenyl]methanesulfonamide], the inhibition at 1000 µM was found to be 96% in [1]; 85% in the experiment on polio virus strain 1; 78% in experiment [2]; 78% in experiment [3]; 97% in [4]; 78% in experiment [6]. Moreover, the “antiviral effect, EV68” value in the experiment on EV68 (Conc. 1 (unit uncertain)) is on record as 30%. The inhibition at 1 µM in the experiment on Enterovirus strain 6 (read-out: % inh.) was found to be 93%; in the experiment with Ljungan virus strain 012, 0%; with Enterovirus strain 30, 90%; in experiment [5] (Conc. 1 µM), 0%.

On to `COc1ccc(-c2cnn3c(NCc4cccc(S(C)(=O)=O)c4)cc(C)nc23)cc1OC` [Ex. 101, 3-(3,4-dimethoxyphenyl)-5-methyl-N-[(3-methylsulfonylphenyl)methyl]pyrazolo[1,5-a]pyrimidin-7-amine], for which the inhibition stood at 99% in experiment [1]; 100% with polio virus strain 1; 44% in the experiment on Enterovirus strain 6; 90% in experiment [2]; 29% in experiment [4]. Besides, the inhibition at 100 µM with Enterovirus strain 71 came out at 99%; in [7], 0%; with Ljungan virus strain 012 it was 0%; in the experiment on Enterovirus strain 30, 89%; in the experiment on Ljungan virus strain 145, 0%. The same compound came in with an inhibition at 0.1 µM in the experiment on Enterovirus strain 71 (EV71, Conc. 0.1 μM) of 99%.

Regarding `COc1ccc(CNc2cc(C)nc3c(-c4ccc(OC)c(OC)c4)c(C)nn23)cn1` [Ex. 79, 3-(3,4-dimethoxyphenyl)-N-[(6-methoxy-3-pyridyl)methyl]-2,5-dimethyl-pyrazolo[1,5-a]pyrimidin-7-amine], the inhibition was determined as 84% in experiment [1]; 79% in the experiment with polio virus strain 1; 0% with Enterovirus strain 6; 87% in experiment [2]; 78% in experiment [3]; 98% in [4]. Also, the inhibition in [6] worked out at 88%. In addition, the inhibition at 100 µM was determined as 88% in the experiment on Enterovirus strain 71; 0% in experiment [7]; 0% in the experiment on Ljungan virus strain 012; 10% in the experiment on Enterovirus strain 30; 0% in experiment [5]; 0% in the experiment with Ljungan virus strain 145. Also, in the experiment on EV68 (Conc. 0.1 (unit uncertain)), the “antiviral effect, EV68” value stood at 46%. In the experiment on EV68 (EV68, Conc. 1 μM), this compound had an inhibition at 1 µM of 51%.

Turning to `COc1ccc(-c2c(C)nn3c(NCc4cccc(S(C)(=O)=O)c4)cc(C)nc23)cc1OC` [Ex. 82, 3-(3,4-dimethoxyphenyl)-2,5-dimethyl-N-[(3-methylsulfonylphenyl)methyl]pyrazolo[1,5-a]pyrimidin-7-amine], the inhibition in [1] was determined as 98%; with polio virus strain 1, 100%; in the experiment on Enterovirus strain 6 it was 89%; in experiment [2], 91%; in experiment [3], 100%; in experiment [4], 89%. In addition, the inhibition in experiment [6] was found to be 95%. Further, in the experiment on EV68 (Conc. 0.1 (unit uncertain)), the “antiviral effect, EV68” value is 24%. Besides, the inhibition at 100 µM in experiment [7] was determined as 0%; in the experiment with Ljungan virus strain 012, 0%; in the experiment on Enterovirus strain 30, 94%; in the experiment with Ljungan virus strain 145, 0%. In addition, the inhibition at 0.01 µM in experiment [2] (read-out: % inh.) is 82%.

Turning to `COc1ccc(-c2c(C)nn3c(NCc4ccc(F)cc4)cc(C(C)C)nc23)cc1OC` [Ex. 111, 3-(3,4-dimethoxyphenyl)-N-[(4-fluorophenyl)methyl]-5-isopropyl-2-methyl-pyrazolo[1,5-a]pyrimidin-7-amine], the inhibition at 1000 µM in experiment [1] was 96%; in the experiment on polio virus strain 1, 100%; in experiment [2] it was 100%; in experiment [3], 98%; in experiment [4], 99%; in experiment [6], 97%. In the experiment with EV68 (Conc. 1 (unit uncertain)), the “antiviral effect, EV68” value worked out at 40%. In addition, the values for the inhibition at 1 µM with Ljungan virus strain 012 and in the experiment with Enterovirus strain 30 were 0% and 80%, respectively. Besides, in experiment [6] (read-out: % inh.), the inhibition at 0.1 µM was determined as 68%.

As to `COc1ccc(-c2c(C)nn3c(NCc4ccc(O)cc4)cc(C)nc23)cc1OC` [Ex. 81, 4-[[[3-(3,4-dimethoxyphenyl)-2,5-dimethyl-pyrazolo[1,5-a]pyrimidin-7-yl]amino]methyl]phenol], the inhibition in experiment [1] was found to be 88%; in the experiment on polio virus strain 1, 89%; in the experiment with Enterovirus strain 6, 62%; in [2], 87%; in experiment [3], 77%; in experiment [4], 81%. For the same compound, the inhibition in [6] came to 85%. Further, the inhibition at 100 µM was 86% with Enterovirus strain 71; 0% in experiment [7]; 0% in the experiment with Ljungan virus strain 012; 97% with Enterovirus strain 30; 0% in [5]; 0% with Ljungan virus strain 145. Moreover, the “antiviral effect, EV68” value in the experiment on EV68 (Conc. 0.1 (unit uncertain)) was found to be 29%. The inhibition at 0.01 µM in [6] (read-out: % inh.) was 76%.

`COc1ccc(CNc2cc(C)nc3c(-c4ccc(OC)c(OC)c4)c(C)nn23)cc1` [Ex. 2, 3-(3,4-dimethoxyphenyl)-N-[(4-methoxyphenyl)methyl]-2,5-dimethyl-pyrazolo[1,5-a]pyrimidin-7-amine]: the inhibition at 5000 µM in experiment [1] came to 93%; with polio virus strain 1, 90%; in [2], 97%; in experiment [3], 86%; in experiment [4], 91%; in [6], 91%. The inhibition with Enterovirus strain 6 (Conc.) worked out at 83%. For the same compound, the inhibition at 5 µM worked out at 49% in the experiment with Ljungan virus strain 012, 91% in the experiment with Enterovirus strain 30 and 0% in experiment [5]. The same compound came in with an inhibition at 0.25 µM in the experiment with Enterovirus strain 30 (EV30, Conc. 0.25 μM) of 85%.

Regarding `COc1ccc(-c2cnn3c(NCc4ccncc4)cc(C)nc23)cc1OC` [Ex. 100, 3-(3,4-dimethoxyphenyl)-5-methyl-N-(4-pyridylmethyl)pyrazolo[1,5-a]pyrimidin-7-amine], the inhibition in experiment [1] came to 99%; in the experiment with polio virus strain 1, 83%; in the experiment on Enterovirus strain 6, 88%; in experiment [4], 90%. Further, the inhibition at 100 µM amounted to 81% in the experiment with Enterovirus strain 71; 0% in experiment [7]; 0% with Ljungan virus strain 012; 78% in the experiment with Enterovirus strain 30; 0% with Ljungan virus strain 145. Moreover, in the experiment with Enterovirus strain 30 (EV30, Conc. 0.1 μM), the inhibition at 0.1 µM worked out at 78%.

Take `COc1ccc(-c2c(C)nn3c(NCc4ccc(Cl)cc4)cc(C)nc23)cc1OC` [Ex. 1, N-[(4-chlorophenyl)methyl]-3-(3,4-dimethoxyphenyl)-2,5-dimethyl-pyrazolo[1,5-a]pyrimidin-7-amine]: the inhibition at 5000 µM in experiment [1] was 60%; with polio virus strain 1, 31%; in experiment [2] it was 95%; in experiment [3], 86%; in [4], 90%; in experiment [6], 93%. Also, the inhibition in the experiment with Enterovirus strain 6 (Conc.) came to 90%. The inhibition at 0.25 µM with Enterovirus strain 6 (read-out: % inh.) was found to be 75%. Also, the inhibition at 5 µM was found to be 34% with Ljungan virus strain 012, 100% with Enterovirus strain 30 and 14% in experiment [5].

For `COc1ccc(-c2c(C)nn3c(NCc4ccc5c(c4)OCO5)cc(C)nc23)cc1OC` [Ex. 8, N-(1,3-benzodioxol-5-ylmethyl)-3-(3,4-dimethoxyphenyl)-2,5-dimethyl-pyrazolo[1,5-a]pyrimidin-7-amine], the inhibition at 5000 µM stood at 100% in [1]; 91% in the experiment with polio virus strain 1; 89% in [3]; 100% in experiment [4]; 82% in experiment [6]. Also, in the experiment with Enterovirus strain 6 (Conc.), the inhibition worked out at 88%. Also, the inhibition at 0.25 µM in experiment [4] (read-out: % inh.) stood at 100%. The figures for the inhibition at 5 µM (in the experiment with Ljungan virus strain 012; with Enterovirus strain 30; in experiment [5]) were 38%, 53% and 14%, respectively.
